Measured values as given in patent US20120004282A1, “RNA Interference Mediated Inhibition of the Intercellular Adhesion Molecule 1 (ICAM-1) Gene Expression Using Short Interfering Nucleic Acid (siNA)” (Merck Sharp & Dohme Corp,, priority 2009, published 2012).
[invAb] = inverted abasic unit; d = 2'-deoxy (DNA); m = 2'-O-methyl; r = 2'-OH (RNA); f = 2'-fluoro

Test system: ICAM-1 mRNA
Test: ICAM-1 mRNA knock-down in transfected Calu-1 cells (Taqman RT-PCR)
Assay type: cell-based, human
Conditions: Calu-1 cells, 10 nM siNA, 24 hrs post-transfection, mean ± S.D., relative to non-targeting control
Protocol: Calu-1 (human; ATCC cat# HTB-54): Cells were cultured at 37° C. in the presence of 5% CO2 and grown in McCoy's 5a medium supplemented with fetal bovine serum at a final concentration of 10% and 100 μg/mL of streptomycin and 100 U/mL penicillin.
All transfections were performed using RNAiMax (Invitrogen Cat# 13778-150) as per the manufacturer's instructions.
Calu-1 cells were plated in all wells of a tissue-culture treated, 96-well plate at final counts of 5,000 cells/well in 100 μL of appropriate culture media. Cells were cultured for 24 hours after plating at 37° C. in the presence of 5% CO2.
After 24 hours, complexes containing siNA and RNAiMax were created as follows. A solution of RNAiMax diluted 33-fold in OPTI-MEM was prepared. In parallel, solutions of the siNAs for testing were prepared to a final concentration of 120 nM in OPTI-MEM. After incubation of RNAiMax/OPTI-MEM solution at room temperature for 5 min, an equal volume of the siNA solution and the RNAiMax solution were added together for each of the siNAs. […] This solution was incubated at room temperature for 20 minutes. After incubation, 20 uL of the solution was added to each of the relevant wells. The final concentration of siNA in each well was 10 nM and the final volume of RNAiMax in each well was 0.3 uL.
The time of incubation with the RNAiMax-siNA complexes was 24 hours, unless otherwise indicated. There was no change in media between the transfection and harvesting of the cells unless otherwise indicated.
Dose response curves were carried out in a similar fashion in 96-well plates, while maintaining a constant amount of RNAiMax in each transfection.
RNA was extracted from a 96-well plate using the TaqMan® Gene Expression Cells-to-CT™ Kit (Cat# 4399002) with a modified protocol. Briefly, a 60 uL (1 plate) or 110 uL (2 plates) of the Lysis Solution with DNase I was dispensed into each well of the Lysis Buffer Plate (twin.tec full skirt plate). The lysis buffer and stop plates were stored at 4° C. until the cells were washed.
The plate was spun at 1100 rpm for 5 minutes. The culture medium was aspirated and discarded from the wells of the culture plate. The lysis was performed automatically using a BioMek FX instrument and method. After the Biomek method was completed, the lysis plate was incubated for 2 min. at room temperature. The lysis plate can be stored for 2 hours at 4° C., or at −20° C. or −80° C. for two months.
Each well of the reverse transcription plate required 10 uL of 2× reverse transcriptase Buffer, 1 uL of 20× reverse transcription enzyme and 2 uL of nuclease-free water. The reverse transcription master mix was prepared by mixing 2× reverse transcription buffer, 20× reverse transcription enzyme mix, and nuclease-free water. 13 uL of the reverse transcription master mix was dispensed into each well of the reverse transcription plate (semi-skirted). A separate reverse transcription plate was prepared for each cell plate. The plate was loaded onto a Biomek NX or Biomek FX Dual-96 and the Biomek method was run. The program is programmed to automatically added 7 uL of lysate from the cell lysis procedure described above into each well of the reverse transcription plate. The plate is sealed and spun on a centrifuge (1000 rpm for 30 seconds) to settle the contents to the bottom of the reverse transcription plate. The plate is placed in a thermocycler at 37° C. for 60 min, 95° C. for 5 min, and 4° C. until the plate is removed from the thermocycler. Upon removal, if not used immediately, the plate was frozen at −20° C.
A series of probes and primers were used to detect the various mRNA transcripts of the genes of ICAM-1 and ICAM-2 in human cell lines (see Table 2). All the Taqman probes and primers for the experiments here-in described were supplied as pre-validated sets by Applied Biosystems, Inc., (see Table 2). The assays were performed on an ABI 7900 instrument, according to the manufacturer's instructions. […]

In the case of “48717-DC: siNA duplex, ICAM-1 target site 911 (m); sense B GGuGAcuGAGGAGuucGAc TTB; antisense GUCGAAcuccucAGucAccUU (sense GGUGACUGAGGAGUUCGACTT; antisense GUCGAACUCCUCAGUCACCUU; sense: DNA at AGT, 2'-fluoro at CU, [invAb] at 5' end, 3' end, backbone not given here; antisense: sugars from the 5' end rrrmmmffffffmmffmffmm, backbone not given here)”, the “% KD Human” value is reported as −9 ± 17%.
With “48718-DC: siNA duplex, ICAM-1 target site 1938 (h); sense B cucuuccucGGccuucccA TTB; antisense UGGGAAGGccGAGGAAGAGUU (sense CUCUUCCUCGGCCUUCCCATT; antisense UGGGAAGGCCGAGGAAGAGUU; sense: sugars from the 5' end f9 d2 f7 d3, [invAb] at 5' end, 3' end, backbone not given here; antisense: sugars from the 5' end r4 m4 f2 m11, backbone not given here)” the “% KD Human” value was 19 ± 11%.
“48719-DC: siNA duplex, ICAM-1 target site 1230 (h); sense B cAGuGAccAucuAcAGcuu TTB; antisense AAGcuGuAGAuGGucAcuGUU (sense CAGUGACCAUCUACAGCUUTT; antisense AAGCUGUAGAUGGUCACUGUU; sense: DNA at AGT, 2'-fluoro at CU, [invAb] at 5' end, 3' end, backbone not given here; antisense: sugars from the 5' end rrrffmfmmmfmmffmffmmm, backbone not given here)” was tested, and the “% KD Human” value was 71 ± 9%.
In the case of “48720-DC: siNA duplex, ICAM-1 target site 1609 (h); sense B GuGucuAAAGGAuGGcAcu TTB; antisense AGUGccAuccuuuAGAcAcUU (sense GUGUCUAAAGGAUGGCACUTT; antisense AGUGCCAUCCUUUAGACACUU; sense: DNA at AGT, 2'-fluoro at CU, [invAb] at 5' end, 3' end, backbone not given here; antisense: sugars from the 5' end rrrmffmffffffmmmfmfmm, backbone not given here)”, the “% KD Human” value is reported as 48 ± 20%.
In the case of “48721-DC: siNA duplex, ICAM-1 target site 523 (h); sense B GuuGcuccuGccuGGGAAc TTB; antisense GUUcccAGGcAGGAGcAAcUU (sense GUUGCUCCUGCCUGGGAACTT; antisense GUUCCCAGGCAGGAGCAACUU; sense: DNA at AGT, 2'-fluoro at CU, [invAb] at 5' end, 3' end, backbone not given here; antisense: sugars from the 5' end rrrfffmmmfmmmmmfmmfmm, backbone not given here)”, the “% KD Human” value is reported as 56 ± 16%.
“48723-DC: siNA duplex, ICAM-1 target site 390 (h); sense B cuGGcAAuGcccAGAcAuc TTB; antisense GAUGucuGGGcAuuGccAGUU (sense CUGGCAAUGCCCAGACAUCTT; antisense GAUGUCUGGGCAUUGCCAGUU; sense: DNA at AGT, 2'-fluoro at CU, [invAb] at 5' end, 3' end, backbone not given here; antisense: sugars from the 5' end rrrmfffmmmfmffmffmmmm, backbone not given here)” was tested, and the “% KD Human” value was 68 ± 12%.
With “48724-DC: siNA duplex, ICAM-1 target site 560 (h); sense B cuGAGcAAuGuGcAAGAAG TTB; antisense CUUcuuGcAcAuuGcucAcUU (sense CUGAGCAAUGUGCAAGAAGTT; antisense CUUCUUGCACAUUGCUCACUU; sense: DNA at AGT, 2'-fluoro at CU, [invAb] at 5' end, 3' end, backbone not given here; antisense: sugars from the 5' end rrrfffmfmfmffmfffmfmm, backbone not given here)” the “% KD Human” value was 34 ± 8%.
With “48725-DC: siNA duplex, ICAM-1 target site 1143 (h); sense B cAGucAGuGuGAccGcAGA TTB; antisense UCUGcGGucAcAcuGAcuGUU (sense CAGUCAGUGUGACCGCAGATT; antisense UCUGCGGUCACACUGACUGUU; sense: DNA at AGT, 2'-fluoro at CU, [invAb] at 5' end, 3' end, backbone not given here; antisense: sugars from the 5' end rrrmfmmffmfmffmmffmmm, backbone not given here)” the “% KD Human” value was 53 ± 19%.
With “48726-DC: siNA duplex, ICAM-1 target site 1217 (h); sense B GAGAcAcuGcAGAcAGuGA TTB; antisense UCAcuGucuGcAGuGucucUU (sense GAGACACUGCAGACAGUGATT; antisense UCACUGUCUGCAGUGUCUCUU; sense: DNA at AGT, 2'-fluoro at CU, [invAb] at 5' end, 3' end, backbone not given here; antisense: sugars from the 5' end rrrffmfffmfmmfmffffmm, backbone not given here)” the “% KD Human” value was 64 ± 16%.
“48727-DC: siNA duplex, ICAM-1 target site 1521 (h); sense B GGGAuuGuccGGGAAAcuG TTB; antisense CAGuuucccGGAcAAucccUU (sense GGGAUUGUCCGGGAAACUGTT; antisense CAGUUUCCCGGACAAUCCCUU; sense: DNA at AGT, 2'-fluoro at CU, [invAb] at 5' end, 3' end, backbone not given here; antisense: sugars from the 5' end rrrffffffmmmfmmffffmm, backbone not given here)” was tested, and the “% KD Human” value was 23 ± 6%.
